Legend:
[1] = test system: full-thickness excisional skin wounds of C57BL/6J mice; test: Excisional skin wound healing and scar formation; format: in vivo
Description: C57BL/6J mice were maintained at 22° C. under a 12-h light/dark cycle. The experiments were performed with 12-weeks old mice. After anesthetized by an intraperitoneal injection of ketamine ([…]) and xylazine (100 mg/kg), 6-mm full-thickness excisional skin wounds was made on the backs of mice using 6-mm skin biopsy punches. Immediately after wounding, 1 μM to 4000 μM of adenine in […] saline or saline alone was applied to the wound bed. The skin wounds were then covered by semipermeable transparent dressing and fixed to the skin. The mice were treated with adenine or vehicle for 14 days and then sacrificed. The scar formation was assessed by Masson's trichrome staining to observe the fibrosis process and the collagen framework of the healed wound (Fixed by 4% paraformaldehyde).

[2] = test system: AMPK; test: AMPK activation assay (western blot of regenerated skin tissue); format: in vivo; conditions: db/db mice, 12 days post wounding
Description: Effects of adenine on AMPK activation were evaluated based on the phosphorylation of AMPK and Acetyl-CoA carboxylase (ACC) protein upon adenine treatment. The process of animal experiment was the same as Example 2, except that after 12 days post wounding, skin tissues of db/db mice were homogenized and subject to western blot analysis. Equal amount of proteins from each sample was separated by SDS-PAGE and then electroblotted on to PVDF membranes. Membranes were blocked with 3% BSA in PBS for 60 mins and incubated with an anti-phospho-AMPK (Thr172) antibody (1:2000, Cell Signaling), an anti-AMPK antibody (1:2000, Cell Signaling), an anti-ACC antibody (1:1000, Cell Signaling) or an anti-phospho-ACC antibody (1:1000, Cell Signaling) at 4° C. overnight followed by the corresponding secondary antibody for 1 h at room temperature (RT). Immunoreactive bands were detected by enhanced chemiluminescence (ECL; Pierce, Rockford, Ill., USA) and recorded using Kodak film (Rochester, N.Y., USA). The detected signals were scanned and then quantified using ImageJ software.

[3] = test system: diabetic wound of db/db mice; test: Diabetic wound healing, 0.02% adenine gel on splinted full thickness wound; format: in vivo; conditions: 0.02% adenine in a form of gel, once daily for 15 days
Description: The BKS. Cg-Dock7^m+/+Lepr^db/Jnarl (db/db) male mice at 8 weeks of age were purchased from the National Laboratory Animal Center (NLAC, R.O.C.). A total number of 10 mice with healthy and intact skin were used for the test for diabetic wound healing. The average±SEM body weight of the mice was 34.5±1.5 g. All mice had fasting blood glucose levels over 300 mg/dL.
The mice were housed individually in stainless steel cage, and were quarantined and acclimated for at least one week prior to test for diabetic wound healing. The temperature and relative humidity were in the range stipulated in the protocol at 21±2° C. and 55±10%, respectively. A 12-h/12-h light/dark cycle was maintained with light on at 7:00 AM and off at 7:00 PM.
The method for applying the composition containing 0.02% of adenine to the diabetic wound of mice was shown as follows. The mice described in Preparation example 4 were randomly divided into two groups of five animals each and then were anesthetized with isoflurane by use of an anesthesia system for rodents (Matrx™ VIP 3000 isoflurane vaporizer, Midmark). […]
(§1) Wounds of each mice were photographed everyday with standardized exposure and focal lengths using a digital camera (Lumix DMC-GF1, Panasonic), and wound areas were analyzed and calculated according to the analysis as described in Example 1.

[4] = test system: 3T3 cells; test: Fibroblast (3T3) cell proliferation assay; format: cell-based, Human; conditions: 72 h; dose-dependent
Description: […] fibro blast cell line 3T3 were cultured in high-glucose Dulbecco's modified Eagle's medium (DMEM) containing 10% fetal bovine serum (FBS), 4 mM L-glutamine, 2 mM sodium pyruvate and 1% penicillin/streptomycin (Invitrogen GibeoBRL, Carlsbad, Calif., USA) at 37° C. under 5% CO2. For cell proliferation assay, 3T3 cells were plated at 1×10^5 per well (6-well plate). 24 h after plating, cells were treated with indicated concentration of adenine for 72 h and the number of viable cells was counted. Cells were detached using trypsin-EDTA solution and stained with trypan blue. The living cells were counted using hemocytometer. […] Data were presented as the mean±SEM of three independent experiments.

[5] = test system: scald burn wound of C57BL/6 mice; test: Scald burns healing; format: in vivo; conditions: 1 to 4,000 μM adenine in normal saline, once daily for 28 days
Description: The C57BL/6 mice approximately at 8 weeks of age were purchased from the National Laboratory Animal Center (NLAC, R.O.C.). The mice were deeply anesthetized by injecting intraperitoneally normal saline mixed with zoletil 50 and 2% rompun in a ratio of 2:1:1 (2 μl per gram of body weight). Each of the mice was shaved by depilatory cream. The shaved dorsal surface of each mice was sterilized with 70% ethanol and then the mice were placed in a restrainer with a 2×3 cm hole at the top. The dorsal surface of mice was exposed toward the hole of restrainer. The water at 60° C. was applied to the dorsal surface of mice for 40 seconds, followed by water at 4° C. for 45 seconds. The mice of Control group was only applied with water at 4° C. for 45 seconds. After scalding, each of the mice was then individually placed in a cage, and fed with diazepam in the drinking water (50 mg/L) for the early 7 days. The mice were monitored every day for body weight of and wound infections. […]
as §1

[6] = test system: ATP; test: ATP assay in regenerated skin tissue; format: in vivo; conditions: db/db mice; 12 days post wounding; ATP colorimetric assay
Description: The process of animal experiment was the same as Example 2, except that after 12 days post wounding, skin tissues of db/db mice were homogenized and centrifuged for 10 mins with 8,000 rpm at 4° C. Supernatant from tissue lysate was filled up in the column and spun down at 1,000×g for 2 minutes. 10 μL of eluate was analyzed using ATP colorimetric assay kit (Biovision).

[7] = test system: pressure ulcer wound of C57BL/6 mice; test: Pressure ulcer healing; format: in vivo; conditions: 1 to 4,000 μM adenine in normal saline
Description: The C57BL/6 mice approximately at 8 weeks of age were purchased from the National Laboratory Animal Center (NLAC, R.O.C.). The mice were anesthetized with isoflurane using anesthesia system for rodents (Matrx™ VIP 3000 isoflurane vaporizer, Midmark). Before wounding, the dorsal surface was shaved and sterilely prepped with 70% ethanol for surgery. Dorsal skin was positioned between 2 circular magnets having 12-mm diameter for 12 hours and removed from them for 12 hours for 1 ischemia-reperfusion cycle. Pressure ulcer was created by 2 ischemia-reperfusion cycles. The force generated between the 2 magnets was 0.183N for a 5-mm skin bridge between the 2 magnets.
After 2 ischemia-reperfusion cycles, the compositions containing 1 μM to 4,000 μM adenine in normal saline or only normal saline as Control were individually applied on the pressure ulcer wound of mice once daily for 14 days.
as §1

Nc1ncnc2nc[nH]c12 [Adenine, adenine]
scar width compared to vehicle treated wounds ([1]; 14 days post-wounding, topical treatment, histological examination): significantly decreased | extent of closure versus control mice ([1]; after 14 days of treatment, 1 μM to 4000 μM adenine in saline, dose-dependent): significantly greater | phosphorylation level of ACC in regenerated skin tissue [2]: efficiently enhance phosphorylation level | phosphorylation level of AMPK in regenerated skin tissue [2]: efficiently enhance phosphorylation level | process of diabetic wound healing [3]: efficiently enhance the process of diabetic wound healing | 3T3 cell proliferation [4]: significantly inhibited | inflammatory response [5]: efficiently decrease inflammatory response | process of healing of scald burns wound [5]: enhance the process of healing of scald burns wound | ATP level in regenerated skin tissue [6]: efficiently increase ATP level | process of healing of pressure ulcer wound ([7]; once daily for 14 days): efficiently enhance the process of healing of pressure ulcer wound | extent of closure versus control mice ([7]; after 14 day of treatment, dose-dependent): significantly greater

Reference: patent publication US11311546B2, “Method for enhancing wound healing by administrating adenine” (Energenesis Biomedical Co., Ltd., priority 2017, dated 2022)
